Measurements from ChEMBL document CHEMBL3045426, “Synthesis, Antiviral and Antibacterial Activities of Isatin Mannich Bases” (Med Chem Res, 2005).
≈ marks a conversion by molar mass, not a printed value.

test system: Vibrio cholerae; experiment: Antimicrobial activity against Vibrio cholerae 0139 after 18 to 20 hr by agar dilution method; type: functional; conditions: 139

SMILES | MIC [mg/L]
COc1cc(Cc2cnc(/N=C3\C(=O)N(CN4CCN(c5cc6c(cc5F)c(=O)c(C(=O)O)cn6C5CC5)CC4)c4ccc(Cl)cc43)nc2N)cc(OC)c1OC | 0.019 (≈ 0.0238 µM)

test system: Vibrio fluvialis; experiment: Antimicrobial activity against Vibrio fluvialis after 18 to 20 hr by agar dilution method; type: functional; conditions: not given

SMILES | MIC [mg/L]
COc1cc(Cc2cnc(/N=C3\C(=O)N(CN4CCN(c5cc6c(cc5F)c(=O)c(C(=O)O)cn6C5CC5)CC4)c4ccc(Cl)cc43)nc2N)cc(OC)c1OC | 0.0095 (≈ 0.0119 µM)

test system: Vibrio mimicus; experiment: Antimicrobial activity against Vibrio mimicus after 18 to 20 hr by agar dilution method; type: functional; conditions: not given

SMILES | MIC [mg/L]
COc1cc(Cc2cnc(/N=C3\C(=O)N(CN4CCN(c5cc6c(cc5F)c(=O)c(C(=O)O)cn6C5CC5)CC4)c4ccc(Cl)cc43)nc2N)cc(OC)c1OC | 0.0095 (≈ 0.0119 µM)

test system: Pseudomonas aeruginosa; experiment: Antimicrobial activity against Pseudomonas aeruginosa after 18 to 20 hr by agar dilution method; type: functional; conditions: not given

SMILES | MIC [mg/L]
COc1cc(Cc2cnc(/N=C3\C(=O)N(CN4CCN(c5cc6c(cc5F)c(=O)c(C(=O)O)cn6C5CC5)CC4)c4ccc(Cl)cc43)nc2N)cc(OC)c1OC | 1.22 (≈ 1.53 µM)

test system: Staphylococcus aureus; experiment: Antimicrobial activity against Staphylococcus aureus after 18 to 20 hr by agar dilution method; type: functional; conditions: not given

SMILES | MIC [mg/L]
COc1cc(Cc2cnc(/N=C3\C(=O)N(CN4CCN(c5cc6c(cc5F)c(=O)c(C(=O)O)cn6C5CC5)CC4)c4ccc(Cl)cc43)nc2N)cc(OC)c1OC | 4.88 (≈ 6.12 µM)

test system: Morganella morganii; experiment: Antimicrobial activity against Morganella morganii after 18 to 20 hr by agar dilution method; type: functional; conditions: not given

SMILES | MIC [mg/L]
COc1cc(Cc2cnc(/N=C3\C(=O)N(CN4CCN(c5cc6c(cc5F)c(=O)c(C(=O)O)cn6C5CC5)CC4)c4ccc(Cl)cc43)nc2N)cc(OC)c1OC | 1.22 (≈ 1.53 µM)

test system: Shigella boydii; experiment: Antimicrobial activity against Shigella boydii after 18 to 20 hr by agar dilution method; type: functional; conditions: not given

SMILES | MIC [mg/L]
COc1cc(Cc2cnc(/N=C3\C(=O)N(CN4CCN(c5cc6c(cc5F)c(=O)c(C(=O)O)cn6C5CC5)CC4)c4ccc(Cl)cc43)nc2N)cc(OC)c1OC | 2.44 (≈ 3.06 µM)

test system: Plesiomonas; experiment: Antimicrobial activity against Plesiomonas after 18 to 20 hr by agar dilution method; type: functional; conditions: not given

SMILES | MIC [mg/L]
COc1cc(Cc2cnc(/N=C3\C(=O)N(CN4CCN(c5cc6c(cc5F)c(=O)c(C(=O)O)cn6C5CC5)CC4)c4ccc(Cl)cc43)nc2N)cc(OC)c1OC | 1.22 (≈ 1.53 µM)

test system: Shigella sonnei; experiment: Antimicrobial activity against Shigella sonnei after 18 to 20 hr by agar dilution method; type: functional; conditions: not given

SMILES | MIC [mg/L]
COc1cc(Cc2cnc(/N=C3\C(=O)N(CN4CCN(c5cc6c(cc5F)c(=O)c(C(=O)O)cn6C5CC5)CC4)c4ccc(Cl)cc43)nc2N)cc(OC)c1OC | 0.31 (≈ 0.389 µM)

test system: Klebsiella pneumoniae; experiment: Antimicrobial activity against Klebsiella pneumoniae after 18 to 20 hr by agar dilution method; type: functional; conditions: not given

SMILES | MIC [mg/L]
COc1cc(Cc2cnc(/N=C3\C(=O)N(CN4CCN(c5cc6c(cc5F)c(=O)c(C(=O)O)cn6C5CC5)CC4)c4ccc(Cl)cc43)nc2N)cc(OC)c1OC | 0.31 (≈ 0.389 µM)

test system: Klebsiella pneumoniae; experiment: Antimicrobial activity against Klebsiella pneumoniae subsp. ozaenae after 18 to 20 hr by agar dilution method; type: functional; conditions: not given

SMILES | MIC [mg/L]
COc1cc(Cc2cnc(/N=C3\C(=O)N(CN4CCN(c5cc6c(cc5F)c(=O)c(C(=O)O)cn6C5CC5)CC4)c4ccc(Cl)cc43)nc2N)cc(OC)c1OC | 4.83 (≈ 6.06 µM)

test system: Mycobacterium tuberculosis; experiment: Antimycobacterial activity against Mycobacterium tuberculosis H37Rv ATCC 27294 at 6.25 ug/ml by MABA; type: functional; conditions: not given

SMILES | inhibition at 6.25 µg/mL [%]
COc1cc(Cc2cnc(/N=C3\C(=O)N(CN4CCN(c5cc6c(cc5F)c(=O)c(C(=O)O)cn6C5CC5)CC4)c4ccc(Cl)cc43)nc2N)cc(OC)c1OC | 100

test system: not listed separately; experiment: Cytotoxicity against Homo sapiens (human) HuH7 cells assessed as cell growth at 50 ug/ml after 3 days by Neutral red assay; type: cell-based, Huh-7; conditions: read-out: Activity

SMILES | viability at 72 h, 50 ug/ml [%]
COc1cc(Cc2cnc(/N=C3\C(=O)N(CN4CCN(c5cc6c(cc5F)c(=O)c(C(=O)O)cn6C5CC5)CC4)c4ccc(Cl)cc43)nc2N)cc(OC)c1OC | 109

test system: not listed separately; experiment: Cytotoxicity against Homo sapiens (human) CEM cells after 5 days by MTT assay; type: cell-based; conditions: CEM cells (CCRF-CEM)

SMILES | CC50 at 120 h [mg/L]
COc1cc(Cc2cnc(/N=C3\C(=O)N(CN4CCN(c5cc6c(cc5F)c(=O)c(C(=O)O)cn6C5CC5)CC4)c4ccc(Cl)cc43)nc2N)cc(OC)c1OC | > 200

test system: Human immunodeficiency virus 1; experiment: Antiviral activity against Human immunodeficiency virus 1 IIIB infected CEM cells assessed as protection against viral infection after 6 days by XTT assay; type: functional, CCRF-CEM; set-up: concentration or dose not given beside the values; conditions: not given

SMILES | Activity [%]
COc1cc(Cc2cnc(/N=C3\C(=O)N(CN4CCN(c5cc6c(cc5F)c(=O)c(C(=O)O)cn6C5CC5)CC4)c4ccc(Cl)cc43)nc2N)cc(OC)c1OC | 33.3

test system: Human immunodeficiency virus 1; experiment: Antiviral activity against Human immunodeficiency virus 1 IIIB infected CEM cells assessed as inhibition of virus-induced cytopathicity after 6 days by XTT assay; type: functional, organism-based; conditions: CCRF-CEM, 144 h

SMILES | EC50 [mg/L]
COc1cc(Cc2cnc(/N=C3\C(=O)N(CN4CCN(c5cc6c(cc5F)c(=O)c(C(=O)O)cn6C5CC5)CC4)c4ccc(Cl)cc43)nc2N)cc(OC)c1OC | > 200

test system: not listed separately; experiment: Cytotoxicity against Homo sapiens (human) MT4 cells after 5 days by MTT assay; type: cell-based; conditions: not given

SMILES | CC50 at 120 h [mg/L]
COc1cc(Cc2cnc(/N=C3\C(=O)N(CN4CCN(c5cc6c(cc5F)c(=O)c(C(=O)O)cn6C5CC5)CC4)c4ccc(Cl)cc43)nc2N)cc(OC)c1OC | 187 (≈ 234 µM)

test system: Human immunodeficiency virus 1; experiment: Antiviral activity against Human immunodeficiency virus 1 IIIB infected MT4 cells assessed as inhibition of virus-induced cytopathicity after 5 days by MTT assay; type: functional, organism-based; conditions: MT4, 120 h

SMILES | EC50 [mg/L]
COc1cc(Cc2cnc(/N=C3\C(=O)N(CN4CCN(c5cc6c(cc5F)c(=O)c(C(=O)O)cn6C5CC5)CC4)c4ccc(Cl)cc43)nc2N)cc(OC)c1OC | 9.4 (≈ 11.8 µM)

test system: Hepatitis C virus; experiment: Antiviral activity against Hepatitis C virus BM4-5 infected in Huh7 cells assessed as inhibition of viral RNA replication by phosphor screening method; type: functional, Hepacivirus hominis, Huh-7; conditions: not given

SMILES | inhibition (INH) [%]
COc1cc(Cc2cnc(/N=C3\C(=O)N(CN4CCN(c5cc6c(cc5F)c(=O)c(C(=O)O)cn6C5CC5)CC4)c4ccc(Cl)cc43)nc2N)cc(OC)c1OC | 86

test system: Human immunodeficiency virus 1; experiment: Antiviral activity against Human immunodeficiency virus 1 IIIB infected MT4 cells assessed as protection against viral infection after 5 days by MTT assay; type: functional; set-up: concentration or dose not given beside the values; conditions: not given

SMILES | Activity [%]
COc1cc(Cc2cnc(/N=C3\C(=O)N(CN4CCN(c5cc6c(cc5F)c(=O)c(C(=O)O)cn6C5CC5)CC4)c4ccc(Cl)cc43)nc2N)cc(OC)c1OC | 101
